Reference: patent publication US20150126464A1, “THERAPEUTIC DRUG AND THERAPEUTIC METHOD FOR NEUROLOGICAL DISEASES INCLUDING ALZHEIMER'S DISEASE ASSOCIATED WITH 1,25D3-MARRS” (priority 2013, published 2015)
Structures can show the parent of a compound that is named as a salt.

Experiments:
[1] = system: rat cortical neurons (SD E18); assay: Measurement of axon density in cortical neurons with or without 1,25D3-MARRS knockdown; settings: 1 μM, 4 days, vs vehicle; for density of pNF-H-positive axons per MAP2-positive neuron, control groups: control (no 1,25D3-MARRS knockdown) cortical neurons; for density of pNF-H-positive axons per MAP2-positive neuron, 1,25D3-MARRS knockdown groups: neurons transfected with siRNA for 1,25D3-MARRS (400 nM)
Source text: siRNAs were transfected into rat cortical neurons (SD E18) according to the manufacturer's protocol for nucleofection (Lonza, Bazel, Switzerland). […] Two days after the transfection, the cells were fixed and double-immunostained with a monoclonal antibody against a neuron marker MAP2a/2b (1:500, NeoMarker, Fremont, Calif., USA) and Ab099 clone, a specific antibody for 1,25D3-MARRS (1:500, provided by Dr. Nemere).
Twelve to fourteen images were captured. The lengths of the pNF-H-positive axons were measured using an image analyzer Neurocyte (Kurabo), which automatically traces and measures neurite length without measuring the cell bodies. The sum of the axon lengths was divided by the number of MAP2-positive neurons.
1,25D3-MARRS was knocked down using siRNA transfection. […] Two days after the siRNA transfection, denosomin (1 μM) or a vehicle solution was applied to the cells. Further, after 4-day incubation, the cells were double-immunostained for pNF-H and MAP2 to measure the axonal length per neuron.

[2] = Body weight during dioscin administration; format: in vivo, mouse
Description: Dioscin in an amount of 30 μmol/kg/day was orally administered to normal mice (ddY mice, male, 6 weeks old) for 4 days. Dioscin (Chromadex, Irvine, Calif., USA) was dissolved in ethanol at 10 times the final concentration to give a stock solution, and the stock solution was diluted in a 5% aqueous solution of glucose to the final concentration. One hour after the last administration, the mice were used in the test.
Dioscin (30 μmol/kg/day) was orally administered to 5XFAD mice (male, 20 weeks old) for 6 days. One hour after the last administration, the training session was initiated.

5XFAD mice [3] = assay: Novel object recognition test in 5XFAD mice (Alzheimer's disease model); format: in vivo, mouse
Source text: Transgenic mice (5XFAD) as an animal model of AD were obtained from the Jackson Laboratory (Bar Harbor, Me., USA). The 5XFAD mice overexpress human APP695 cDNA having Swedish mutation (K670N and M671L), Florida mutation (I716V) and London mutation (V717I) and human PS1 cDNA (M146L and L286V) under the transcriptional control of the neuron-specific mouse Thy-1 promoter (Oakley, H. et al., J Neurosci, 26, 10129-10140, 2006). They were maintained by crossing hemizygous transgenic mice with B6/SJL F1 breeders.
To investigate the effect of diosgenin on 5XFAD, hemizygous 5XFAD mice (female, 6 to 8 months old) and non-transgenic littermate wild-type mice (female, 6 to 8 months old) were used. These mice were obtained by crossing hemizygous 5XFAD mice and B6/SJL F1 mice. All mice were housed with free access to food and water and were kept in a controlled environment (22±2° C., 50±5% humidity, 12-h light/dark cycle starting at 7:00 am).
Diosgenin was dissolved in dimethyl sulfoxide (DMSO) at 10 times the final concentration to give a stock solution. The stock solution was diluted in physiological saline to the final concentration immediately before treatment. The diosgenin solution was intraperitoneally administered to 5XFAD mice once a day (10 μmol/kg=4.14 mg/kg) for 20 days. On the last day of administration (Day 20), each mouse was housed in a separate open-field box made of polyvinyl chloride (33 cm×[…]; height: 26.5 cm) and habituated to the environment for 10 min. […]
For each mouse of Example 1, Comparative Examples 1 and 2, and Reference Example 1, the path during the 10-minute habituation was tracked using a digital camera system. The distance each mouse traveled during the 10 minutes was analyzed as locomotion activity with EthoVision 3.0 (Noldus, Wageningen, The Netherlands). […] In the present invention, the ratio (%) of the exploration time for the novel object to the total exploration time was calculated as an exploration preferential index. […]

normal mice = assay: Novel object recognition test in normal mice; format: in vivo, mouse; settings: normal ddY mice, dioscin 30 μmol/kg/day orally 4 days
Description: Diosgenin (Wako Pure Chemical Industries, Ltd., Osaka, Japan) was dissolved in ethanol at 10 times the final concentration to give a stock solution, and the stock solution was diluted in a 5% aqueous solution of glucose to the final concentration. The diosgenin solution was intraperitoneally administered to normal mice (ddY mice, male, 6 weeks old) once a day (10 μmol/kg/day) for 5 or 6 days. One hour after the last administration, each mouse was housed in a separate open-field box made of polyvinyl chloride (33 cm×28 cm; height: 26.5 cm), habituated to the environment for 10 minutes, and used in the test.
Using the mice of Example 8 and Comparative Example 11, a novel object recognition test was performed to evaluate the object recognition memory. Testing was carried out in a dimly illuminated room (100 lux). The test was performed as described in Joyashiki, E. et sl., Int J Neurosci, 121, 181-190, 2011 and Tohda, C. et al., Int J Neurosci, 121, 641-648, 2011, written by the inventors and others, except that the time interval between a training session and a test session was 48 hours. As a locomotion index, the path of each mouse was tracked using a digital camera system. The distance each mouse traveled during the 10 minutes was analyzed as locomotion activity with EthoVision 3.0 (Noldus, Wageningen, The Netherlands).
The diosgenin solution was intraperitoneally administered to normal mice (C57BL/6, male, 8 weeks old) (100 μmol/kg/day) for 14 days. On the day after the 14th administration, the mice were used in the test.
Using the mice of Example 9 and Comparative Example 12, the novel object recognition test was performed. The test was performed under the conditions as described above.
Dioscin in an amount of 30 μmol/kg/day was orally administered to normal mice (ddY mice, male, 6 weeks old) for 4 days. Dioscin (Chromadex, Irvine, Calif., USA) was dissolved in ethanol at 10 times the final concentration to give a stock solution, and the stock solution was diluted in a 5% aqueous solution of glucose to the final concentration. […]

5XFAD mice [4] = assay: Immunohistochemistry of brain slices of 5XFAD mice (amyloid plaques, PHF-tau, abnormal axons, presynapses); format: in vivo, mouse; settings: vs vehicle-treated 5XFAD, diosgenin 10 μmol/kg, memantine hydrochloride 200 μmol/kg/day i.p. 20 days
Description: One day after the novel object recognition test, the mice were anesthetized and transcardially perfused with cold physiological saline. The brains were carefully removed from the skull, immediately immersed in 10 to 30% sucrose-PBS and stored at -80° C. The brains were cut in 20-μm successive coronal slices every 100 μm in the parietal area (bregma 1.4-2 mm) sections using a cryostat (C[…], Leica, Heidelberg, Germany). The slices were fixed with 4% paraformaldehyde and stained with a polyclonal antibody against Aβ (1-40/42) (1:300) (Chemicon, Temecula, Calif., USA), a monoclonal antibody against pNF-H (1:500) (Covance, Emeryville, Calif., USA), a monoclonal antibody against synaptophysin (1:500) (Sigma-Aldrich), and a monoclonal antibody against PHF-tau (Thermo Scientific, Rockford, Ill., USA) at 4° C. for 20 hours. […] Three successive brain slices of the frontal cortex and five successive slices of the hippocampus were captured from a mouse for quantification. Extracellular amyloid plaques were determined by the size (greater than 50 μm in width), and the area of amyloid plaques was measured using the image analyzing software ImageJ. The area of the pNF-H-positive abnormal bulb-like axons was measured using ImageJ for every amyloid plaque in the fluorescent images (324 μm×430 μm). The areas of the synaptophysin-positive presynaptic boutons in every amyloid plaque were measured in fluorescent images (324 μm×430 μm) using Image J. The areas of PHF-tau in every amyloid plaque and outer amyloid plaques were measured in fluorescent images (324 μm×430 μm) using ImageJ.

## C=C1/C(=C\C=C2/CCC[C@]3(C)[C@@H]([C@H](C)CCCC(C)(C)O)CC[C@@H]23)C[C@@H](O)C[C@@H]1O [DHVD3, 1α,25-dihydroxy vitamin D3, reference compound]
[1]
  density of pNF-H-positive axons per MAP2-positive neuron, control groups: significantly increased
  density of pNF-H-positive axons per MAP2-positive neuron, 1,25D3-MARRS knockdown groups: did not show any difference

## C[C@@H]([C@H]1CC[C@H]2[C@@H]3CC=C4C[C@@H](O)CC[C@]4(C)[C@H]3CC[C@]12C)[C@H]1CC=C(CO)C(=O)O1 [denosomin]
[1]
  density of pNF-H-positive axons per MAP2-positive neuron, control groups: significantly increased
  density of pNF-H-positive axons per MAP2-positive neuron, 1,25D3-MARRS knockdown groups: almost completely inhibited

## C[C@@H]1CC[C@@]2(OC1)O[C@H]1C[C@H]3[C@@H]4CC=C5C[C@@H](O[C@@H]6O[C@H](CO)[C@@H](O[C@@H]7O[C@@H](C)[C@H](O)[C@@H](O)[C@H]7O)[C@H](O)[C@H]6O[C@@H]6O[C@@H](C)[C@H](O)[C@@H](O)[C@H]6O)CC[C@]5(C)[C@H]4CC[C@]3(C)[C@H]1[C@@H]2C [dioscin]
[2]; 5XFAD mice, dioscin 30 μmol/kg/day orally 6 days
  body weight: None of the groups showed marked change
[2]; normal ddY mice, dioscin 30 μmol/kg/day orally 4 days
  transition of body weight: no significant difference
5XFAD mice [3]; dioscin 30 μmol/kg/day orally 6 days, one hour training-test interval
  behavior index of exploratory behavior for the novel object: higher than 50%
Normal mice
  behavior index of exploratory behavior for the novel object: higher than 50%

## CC12CC3CC(C)(C1)CC(N)(C3)C2 [memantine, Memantine hydrochloride, reference compound]
5XFAD mice [3]; i.p. once a day for 20 days, diosgenin 10 μmol/kg, memantine hydrochloride 200 μmol/kg/day, 30 min training-test interval
  novel object preferential index (exploration preferential index), test session: 50%
5XFAD mice [4]
  area of abnormal axons (swollen axon area) per amyloid plaque in the cerebral cortex: not significantly reduced
  area of abnormal axons (swollen axon area) per amyloid plaque in the hippocampus: inversely significantly increased
  total area of PHF-tau in the cerebral cortex: not significantly different
  total area of PHF-tau in the hippocampus: inversely significantly increased
  total area of amyloid plaques in the hippocampus: significantly reduced in the hippocampus
